# Source: patent US11116736B2, “2-amino-N'-benzylideneacetohydrazides and derivatives for the management of CFTR protein mediated diseases” (Emory University, priority 2015, dated 2021)
# Read-outs that look alike come from different tables or passages of the source.
# Assays:
# [1] = target: T1, WT-hCFTR (Homo sapiens, UniProt P13569); experiment: Two-electrode voltage clamp (TEVC) on wildtype hCFTR expressed in Xenopus oocytes; assay type: cell-based; conditions: for effect on hCFTR current (block / potentiation), in words / Kd: ~50 s extracellular exposure; for Kd: VM=−60 mV
# T1 construct: expressed in transfected cells; host or cells: Xenopus laevis oocytes injected with cRNA (pGEMHE construct from Dr. D. Gadsby)
# T1 sequence (P13569 whole entry): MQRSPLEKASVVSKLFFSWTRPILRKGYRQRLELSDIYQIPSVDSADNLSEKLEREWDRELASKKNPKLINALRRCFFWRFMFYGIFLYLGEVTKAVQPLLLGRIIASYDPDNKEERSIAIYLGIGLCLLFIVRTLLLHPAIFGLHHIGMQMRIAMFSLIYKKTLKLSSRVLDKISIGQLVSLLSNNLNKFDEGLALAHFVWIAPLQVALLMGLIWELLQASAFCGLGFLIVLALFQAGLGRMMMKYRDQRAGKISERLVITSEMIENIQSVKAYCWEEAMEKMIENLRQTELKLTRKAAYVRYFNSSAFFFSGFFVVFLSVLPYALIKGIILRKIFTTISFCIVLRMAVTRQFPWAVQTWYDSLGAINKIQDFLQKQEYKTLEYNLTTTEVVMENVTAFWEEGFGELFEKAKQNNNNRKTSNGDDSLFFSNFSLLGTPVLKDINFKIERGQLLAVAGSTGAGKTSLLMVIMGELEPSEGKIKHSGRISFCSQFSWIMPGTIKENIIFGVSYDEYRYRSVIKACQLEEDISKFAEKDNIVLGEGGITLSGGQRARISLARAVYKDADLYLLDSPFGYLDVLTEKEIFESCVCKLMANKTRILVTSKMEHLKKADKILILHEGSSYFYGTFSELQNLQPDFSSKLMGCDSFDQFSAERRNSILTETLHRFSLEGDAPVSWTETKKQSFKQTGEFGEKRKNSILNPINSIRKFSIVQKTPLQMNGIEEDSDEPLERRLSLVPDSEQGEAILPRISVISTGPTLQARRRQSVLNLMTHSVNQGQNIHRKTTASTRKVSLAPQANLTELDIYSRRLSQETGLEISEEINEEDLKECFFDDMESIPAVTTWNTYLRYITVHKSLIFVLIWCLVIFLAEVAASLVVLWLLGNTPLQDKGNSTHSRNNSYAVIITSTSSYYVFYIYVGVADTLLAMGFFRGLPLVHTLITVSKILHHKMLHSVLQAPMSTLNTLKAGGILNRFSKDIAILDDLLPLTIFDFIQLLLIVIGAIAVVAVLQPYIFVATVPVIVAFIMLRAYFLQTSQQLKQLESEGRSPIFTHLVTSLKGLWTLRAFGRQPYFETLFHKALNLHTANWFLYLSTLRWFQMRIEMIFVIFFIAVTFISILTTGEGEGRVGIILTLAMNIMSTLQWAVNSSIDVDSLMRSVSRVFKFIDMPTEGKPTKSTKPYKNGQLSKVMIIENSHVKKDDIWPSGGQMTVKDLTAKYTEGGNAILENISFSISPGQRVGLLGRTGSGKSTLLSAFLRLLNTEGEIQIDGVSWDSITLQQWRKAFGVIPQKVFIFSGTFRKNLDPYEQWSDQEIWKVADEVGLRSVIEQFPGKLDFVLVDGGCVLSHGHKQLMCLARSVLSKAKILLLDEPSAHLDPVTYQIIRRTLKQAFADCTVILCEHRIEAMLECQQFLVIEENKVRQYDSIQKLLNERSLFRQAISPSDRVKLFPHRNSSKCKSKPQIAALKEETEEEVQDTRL
# Description: The effects of OSSK-2 and OSSK-3 on hCFTR were tested by expression in Xenopus oocytes. Representative current traces using the two-electrode voltage clamp technique (TEVC) are shown in FIGS. 2A and 2B for OSSK-3 and FIG. 2C for OSSK-2.
# (§1) Human CFTR cRNAs used in electrophysiology experiments were prepared from constructs encoding WT-hCFTR in the pGEMHE vector (hCFTR/pGEMHE kindly provided by Dr. D. Gadsby, Rockefeller University). The mutants of hCFTR used in this study were prepared using site-directed mutagenesis with the Quikchange protocol (Stratagene, La Jolla, Calif.) and mutant constructs were verified by sequencing across the entire open reading frame before use. Xenopus laevis oocytes were injected with 0.4-10 ng of CFTR cRNAs, and were incubated at 17° C. in modified Liebovitz's L-15 media with the addition of HEPES (pH 7.5), penicillin, and streptomycin. Recordings were made typically 24-96 hours after the injection of cRNAs.
# (§2) Standard two-electrode voltage clamp (TEVC) techniques were used to study the effects of chemicals with application of reagents to the extracellular bath. Each oocyte was injected with CFTR cRNA along with cRNA encoding the beta2-adrenergic receptor (β2AR). Electrode resistances measured 0.5-1.4 MΩ when filled with 3 M KCl and measured in standard ND96 bath solution that contained (in mM): 96 NaCl, 2 KCl, 1 MgCl2, and 5 HEPES (pH 7.5). CFTR channels were activated by exposure to 10 μM isoproterenol (ISO) in ND 96 and alternatively assayed in the presence or absence of different concentrations of compounds in the bath solution, typically in the continuing presence of ISO. Currents were acquired with an Axoclamp 900A amplifier and Clampex 10.2 software, and current data were digitized at 2 kHz.
# [2] = target: T2, F508del-hCFTR (Homo sapiens, UniProt P13569, DEL508-508); experiment: Two-electrode voltage clamp (TEVC) on F508del-hCFTR expressed in Xenopus oocytes; assay type: cell-based; conditions: for potentiation of F508del-hCFTR, summary in words: FIGS. 4A and 4B under modified conditions
# T2 construct: expressed in transfected cells; host or cells: Xenopus laevis oocytes injected with cRNA; The mutant was made by Quikchange mutagenesis of hCFTR/pGEMHE
# T2 sequence (P13569 with tags, fused parts or gaps DEL508-508): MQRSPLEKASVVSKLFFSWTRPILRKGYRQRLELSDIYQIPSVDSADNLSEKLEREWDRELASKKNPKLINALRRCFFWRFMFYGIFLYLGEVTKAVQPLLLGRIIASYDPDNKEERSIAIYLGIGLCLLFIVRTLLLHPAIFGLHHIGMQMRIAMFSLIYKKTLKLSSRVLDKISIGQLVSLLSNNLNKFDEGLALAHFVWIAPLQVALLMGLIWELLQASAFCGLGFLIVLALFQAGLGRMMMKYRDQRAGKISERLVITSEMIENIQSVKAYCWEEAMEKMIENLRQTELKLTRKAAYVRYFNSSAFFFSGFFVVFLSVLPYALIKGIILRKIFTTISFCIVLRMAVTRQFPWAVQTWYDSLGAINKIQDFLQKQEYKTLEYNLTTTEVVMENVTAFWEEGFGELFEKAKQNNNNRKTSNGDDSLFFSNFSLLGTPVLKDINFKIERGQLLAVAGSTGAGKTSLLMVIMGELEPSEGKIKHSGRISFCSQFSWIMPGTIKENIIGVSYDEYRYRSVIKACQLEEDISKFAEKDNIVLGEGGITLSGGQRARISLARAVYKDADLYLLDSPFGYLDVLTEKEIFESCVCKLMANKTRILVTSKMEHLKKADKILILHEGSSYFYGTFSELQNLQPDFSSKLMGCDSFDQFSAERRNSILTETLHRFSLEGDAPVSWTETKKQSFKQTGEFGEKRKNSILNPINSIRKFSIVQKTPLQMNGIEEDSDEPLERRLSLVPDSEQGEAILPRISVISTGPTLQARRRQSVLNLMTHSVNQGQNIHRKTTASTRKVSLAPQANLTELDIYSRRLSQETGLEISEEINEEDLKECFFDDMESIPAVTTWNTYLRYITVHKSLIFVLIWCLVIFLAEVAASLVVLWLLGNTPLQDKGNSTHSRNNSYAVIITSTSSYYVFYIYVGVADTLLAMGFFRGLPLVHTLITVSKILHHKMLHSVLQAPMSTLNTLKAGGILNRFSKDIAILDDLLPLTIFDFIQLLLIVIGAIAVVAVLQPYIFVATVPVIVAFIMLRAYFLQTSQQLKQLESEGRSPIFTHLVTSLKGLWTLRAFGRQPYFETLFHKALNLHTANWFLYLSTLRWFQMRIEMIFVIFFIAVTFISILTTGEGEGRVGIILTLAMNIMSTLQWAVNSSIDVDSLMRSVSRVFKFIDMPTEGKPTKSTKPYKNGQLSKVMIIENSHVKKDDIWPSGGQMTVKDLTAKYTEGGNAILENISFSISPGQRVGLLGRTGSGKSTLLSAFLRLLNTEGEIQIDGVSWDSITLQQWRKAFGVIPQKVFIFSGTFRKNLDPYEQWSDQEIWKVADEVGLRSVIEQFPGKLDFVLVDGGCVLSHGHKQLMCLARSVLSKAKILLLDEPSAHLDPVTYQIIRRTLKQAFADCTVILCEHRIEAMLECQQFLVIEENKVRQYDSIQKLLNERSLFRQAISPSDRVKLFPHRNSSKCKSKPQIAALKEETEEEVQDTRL
# Description: Nearly 90% of CF patients in the United States bear at least one F508del-CFTR allele; OSSK-3, and OSSK-2 were studied on F508del-hCFTR using the TEVC technique at VM=−60 mV.
# as §1, §2
# [3] = tested on: multiple CFTR mutations; conditions: cited from earlier work
# [4] = target: T1, WT-hCFTR; conditions: cited from earlier work
SMILES,"potentiation of WT-hCFTR, summary in words [1]","effect on hCFTR current (block / potentiation), in words [1]","potentiation of F508del-hCFTR, summary in words [2]",Kd ([1]; read-out: apparent Kd for block of hCFTR) [µM],Kd ([1]; read-out: apparent Kd for potentiation of hCFTR) [µM],"effect on F508del-hCFTR current (block / potentiation), in words ([2]; VM=−60 mV, 5 μM, ~50 s extracellular exposure)","potentiation of mutant CFTR, in words [3]","potentiation of WT-hCFTR, in words [4]"
"Cc1cccc(NCC(=O)N/N=C/c2cc(Br)c(O)c(Br)c2O)c1 [OSSK-2, (E)-N′-(3,5-dibromo-2,4-dihydroxybenzylidene)-2-(m-tolylamino)acetohydrazide]",mildly potentiate WT-hCFTR,very weak block on hCFTR without obvious potentiation,very strongly potentiate F508del-hCFTR,–,–,–,–,–
"Cc1ccc(NCC(=O)N/N=C/c2cc(Br)c(O)c(Br)c2O)cc1 [OSSK-3, (E)-N′-(3,5-dibromo-2,4-dihydroxybenzylidene)-2-(p-tolylamino)acetohydrazide]",mildly potentiate WT-hCFTR,both block as well as potentiation of hCFTR,very strongly potentiate F508del-hCFTR,33,0.0317,very weak initial block that was followed by significantly stronger potentiation compared to the potentiation of WT-hCFTR,–,–
"CC(C)(C)c1cc(C(C)(C)C)c(NC(=O)c2c[nH]c3ccccc3c2=O)cc1O [VX-770, ivacaftor]",–,–,–,–,–,–,strongly potentiates multiple CFTR mutations,only mildly potentiates WT-hCFTR
